Active and inactive are the calls of the source. The calls are words filed in the database; no cut-off is given here.
Key:
[1] = tested on: Lepinotus reticulatus; assay: Insecticidal activity against Lepinotus reticulatus in compound pre-treated rice grains assessed as decrease in progeny production at 1 ppm after 30 days; type: functional, organism-based
[2] = tested on: Liposcelis bostrychophila; assay: Insecticidal activity against Liposcelis bostrychophila (booklice) in compound pre-treated wheat grains assessed as mortality at 1 ppm after 14 days (reference value: 6.8 +/-3.3%); type: functional
[3] = tested on: Liposcelis bostrychophila; assay: Insecticidal activity against Liposcelis bostrychophila (booklice) in compound pre-treated rice grains assessed as effect on progeny production at 1 ppm after 30 days; type: functional, organism-based
[4] = tested on: Liposcelis entomophila; assay: Insecticidal activity against Liposcelis entomophila in compound pre-treated maize grains assessed as decrease in progeny production at 1 ppm after 30 days; type: functional, organism-based
[5] = tested on: Liposcelis bostrychophila; assay: Insecticidal activity against Liposcelis bostrychophila (booklice) in compound pre-treated wheat grains assessed as effect on progeny production at 1 ppm after 30 days; type: functional, organism-based
[6] = tested on: Liposcelis paeta; assay: Insecticidal activity against Liposcelis paeta in compound pre-treated wheat grains assessed as mortality at 1 ppm after 14 days (reference value: 5.6 +/-1.8%); type: functional
[7] = tested on: Liposcelis paeta; assay: Insecticidal activity against Liposcelis paeta in compound pre-treated maize grains assessed as effect on progeny production at 1 ppm after 30 days; type: functional, organism-based
[8] = tested on: Liposcelis bostrychophila; assay: Insecticidal activity against Liposcelis bostrychophila (booklice) in compound pre-treated rice grains assessed as mortality at 1 ppm after 7 days (reference value: 8.9 +/-4.5%); type: functional
[9] = tested on: Liposcelis bostrychophila; assay: Insecticidal activity against Liposcelis bostrychophila (booklice) in compound pre-treated maize grains assessed as mortality at 1 ppm after 14 days (reference value: 13.5 +/-5.3%); type: functional
[10] = tested on: Liposcelis bostrychophila; assay: Insecticidal activity against Liposcelis bostrychophila (booklice) in compound pre-treated wheat grains assessed as mortality at 1 ppm after 7 days (reference value: 3.3 +/-1.7%); type: functional
[11] = tested on: Liposcelis entomophila; assay: Insecticidal activity against Liposcelis entomophila in compound pre-treated wheat grains assessed as decrease in progeny production at 1 ppm after 30 days; type: functional, organism-based
[12] = tested on: Liposcelis paeta; assay: Insecticidal activity against Liposcelis paeta in compound pre-treated maize grains assessed as mortality at 1 ppm after 7 days (reference value: 13.3 +/-3.3%); type: functional
[13] = tested on: Lepinotus reticulatus; assay: Insecticidal activity against Lepinotus reticulatus in compound pre-treated maize grains assessed as mortality at 1 ppm after 7 days (reference value: 34.4 +/-11.4%); type: functional
[14] = tested on: Liposcelis entomophila; assay: Insecticidal activity against Liposcelis entomophila in compound pre-treated maize grains assessed as mortality at 1 ppm after 7 days (reference value: 15.6 +/-6.9%); type: functional
[15] = tested on: Liposcelis entomophila; assay: Insecticidal activity against Liposcelis entomophila in compound pre-treated rice grains assessed as mortality at 1 ppm after 7 days (reference value: 3.3 +/-2.6%); type: functional
[16] = tested on: Lepinotus reticulatus; assay: Insecticidal activity against Lepinotus reticulatus in compound pre-treated rice grains assessed as mortality at 1 ppm after 7 days (reference value: 6.8 +/-2.4%); type: functional
[17] = tested on: Liposcelis entomophila; assay: Insecticidal activity against Liposcelis entomophila in compound pre-treated wheat grains assessed as mortality at 1 ppm after 14 days (reference value: 13.3 +/-4.7%); type: functional
[18] = tested on: Lepinotus reticulatus; assay: Insecticidal activity against Lepinotus reticulatus in compound pre-treated rice grains assessed as mortality at 1 ppm after 14 days (reference value: 15.5 +/-4.1%); type: functional
[19] = tested on: Lepinotus reticulatus; assay: Insecticidal activity against Lepinotus reticulatus in compound pre-treated wheat grains assessed as mortality at 1 ppm after 7 days (reference value: 10.0 +/-5.3%); type: functional
[20] = tested on: Liposcelis paeta; assay: Insecticidal activity against Liposcelis paeta in compound pre-treated rice grains assessed as mortality at 1 ppm after 7 days (reference value: 3.3 +/-1.7%); type: functional
[21] = tested on: Lepinotus reticulatus; assay: Insecticidal activity against Lepinotus reticulatus in compound pre-treated wheat grains assessed as decrease in progeny production at 1 ppm after 30 days; type: functional, organism-based
[22] = tested on: Lepinotus reticulatus; assay: Insecticidal activity against Lepinotus reticulatus in compound pre-treated wheat grains assessed as mortality at 1 ppm after 14 days (reference value: 21.1 +/-7.4%); type: functional
[23] = tested on: Liposcelis paeta; assay: Insecticidal activity against Liposcelis paeta in compound pre-treated rice grains assessed as mortality at 1 ppm after 14 days (reference value: 3.4 +/-1.6%); type: functional
[24] = tested on: Liposcelis bostrychophila; assay: Insecticidal activity against Liposcelis bostrychophila (booklice) in compound pre-treated maize grains assessed as mortality at 1 ppm after 7 days (reference value: 8.9 +/-2.6%); type: functional
[25] = tested on: Liposcelis paeta; assay: Insecticidal activity against Liposcelis paeta in compound pre-treated maize grains assessed as mortality at 1 ppm after 14 days (reference value: 14.1 +/-4.1%); type: functional
[26] = tested on: Liposcelis entomophila; assay: Insecticidal activity against Liposcelis entomophila in compound pre-treated maize grains assessed as mortality at 1 ppm after 14 days (reference value: 14.4 +/-4.1%); type: functional
[27] = tested on: Liposcelis bostrychophila; assay: Insecticidal activity against Liposcelis bostrychophila (booklice) in compound pre-treated maize grains assessed as decrease in progeny production at 1 ppm after 30 days; type: functional, organism-based
[28] = tested on: Liposcelis paeta; assay: Insecticidal activity against Liposcelis paeta in compound pre-treated wheat grains assessed as mortality at 1 ppm after 7 days (reference value: 7.8 +/-3.2%); type: functional
[29] = tested on: Lepinotus reticulatus; assay: Insecticidal activity against Lepinotus reticulatus in compound pre-treated maize grains assessed as mortality at 1 ppm after 14 days (reference value: 61.1 +/-11.9%); type: functional
[30] = tested on: Lepinotus reticulatus; assay: Insecticidal activity against Lepinotus reticulatus in compound pre-treated maize grains assessed as decrease in progeny production at 1 ppm after 30 days; type: functional, organism-based
[31] = tested on: Liposcelis entomophila; assay: Insecticidal activity against Liposcelis entomophila in compound pre-treated rice grains assessed as mortality at 1 ppm after 14 days (reference value: 10.0 +/-4.7%); type: functional
[32] = tested on: Liposcelis entomophila; assay: Insecticidal activity against Liposcelis entomophila in compound pre-treated wheat grains assessed as mortality at 1 ppm after 7 days (reference value: 5.6 +/-2.9%); type: functional
[33] = tested on: Liposcelis bostrychophila; assay: Insecticidal activity against Liposcelis bostrychophila (booklice) in compound pre-treated rice grains assessed as mortality at 1 ppm after 14 days (reference value: 9.7 +/-2.4%); type: functional

## CC[C@H]1CCC[C@H](O[C@H]2CC[C@H](N(C)C)[C@@H](C)O2)[C@@H](C)C(=O)C2=C[C@@H]3[C@@H](C=C(C)[C@@H]4C[C@@H](O[C@@H]5O[C@@H](C)[C@H](OC)[C@@H](OC)[C@H]5OC)C[C@@H]34)[C@@H]2CC(=O)O1.CC[C@H]1CCC[C@H](O[C@H]2CC[C@H](N(C)C)[C@@H](C)O2)[C@@H](C)C(=O)C2=C[C@@H]3[C@@H](C=C[C@@H]4C[C@@H](O[C@@H]5O[C@@H](C)[C@H](OC)[C@@H](OC)[C@H]5OC)C[C@@H]34)[C@@H]2CC(=O)O1
[1]
  inhibition: Active
[2]
  mortality at 1 ppm: 75.6%
[3]
  inhibition: inactive
[4]
  inhibition: Active
[5]
  inhibition: inactive
[6]
  mortality at 1 ppm: 55.6%
[7]
  inhibition: inactive
[8]
  mortality at 1 ppm: 48.9%
[9]
  mortality at 1 ppm: 76.4%
[10]
  mortality at 1 ppm: 74.5%
[11]
  inhibition: Active
[12]
  mortality at 1 ppm: 16.7%
[13]
  mortality at 1 ppm: 94.5%
[14]
  mortality at 1 ppm: 90%
[15]
  mortality at 1 ppm: 52.2%
[16]
  mortality at 1 ppm: 80%
[17]
  mortality at 1 ppm: 84.4%
[18]
  mortality at 1 ppm: 71.1%
[19]
  mortality at 1 ppm: 94.4%
[20]
  mortality at 1 ppm: 10%
[21]
  inhibition: Active
[22]
  mortality at 1 ppm: 96.7%
[23]
  mortality at 1 ppm: 18.8%
[24]
  mortality at 1 ppm: 71.1%
[25]
  mortality at 1 ppm: 37.8%
[26]
  mortality at 1 ppm: 98.9%
[27]
  inhibition: Active
[28]
  mortality at 1 ppm: 46.7%
[29]
  mortality at 1 ppm: 100%
[30]
  inhibition: Active
[31]
  mortality at 1 ppm: 52.3%
[32]
  mortality at 1 ppm: 61.2%
[33]
  mortality at 1 ppm: 45.7%

Source: ChEMBL document CHEMBL3044811, “Efficacy of grain protectants against four psocid species on maize, rice and wheat” (2009)
